Legend:
[1] = molecular target: Carbonic anhydrase 9 (Homo sapiens, UniProt Q16790)
Description: Inhibition of recombinant human carbonic anhydrase-9 assessed as reduction in CO2 hydration preincubated for 10 mins measured for 5 to 10 secs by stopped flow assay

[2] = molecular target: Carbonic anhydrase 2 (Homo sapiens, UniProt P00918); assay: Inhibition of recombinant human carbonic anhydrase-2 assessed as reduction in CO2 hydration preincubated for 10 mins measured for 5 to 10 secs by stopped flow assay
[3] = molecular target: Carbonic anhydrase 1 (Homo sapiens, UniProt P00915); assay: Inhibition of recombinant human carbonic anhydrase-1 assessed as reduction in CO2 hydration preincubated for 10 mins measured for 5 to 10 secs by stopped flow assay
[4] = molecular target: Carbonic anhydrase 12 (Homo sapiens, UniProt O43570); assay: Inhibition of recombinant human carbonic anhydrase-12 assessed as reduction in CO2 hydration preincubated for 10 mins measured for 5 to 10 secs by stopped flow assay
Chain of Carbonic anhydrase 12 (O43570 whole entry): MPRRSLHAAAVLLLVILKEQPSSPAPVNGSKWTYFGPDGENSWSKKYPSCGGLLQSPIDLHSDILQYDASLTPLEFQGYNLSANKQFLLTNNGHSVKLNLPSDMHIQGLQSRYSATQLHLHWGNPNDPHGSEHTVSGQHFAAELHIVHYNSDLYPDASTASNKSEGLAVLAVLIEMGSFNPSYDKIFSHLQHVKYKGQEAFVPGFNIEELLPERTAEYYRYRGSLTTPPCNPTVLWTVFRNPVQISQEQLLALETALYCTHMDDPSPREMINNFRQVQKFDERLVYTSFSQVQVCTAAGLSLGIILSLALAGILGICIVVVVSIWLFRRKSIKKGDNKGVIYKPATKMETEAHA

Chain of Carbonic anhydrase 1 (P00915 whole entry): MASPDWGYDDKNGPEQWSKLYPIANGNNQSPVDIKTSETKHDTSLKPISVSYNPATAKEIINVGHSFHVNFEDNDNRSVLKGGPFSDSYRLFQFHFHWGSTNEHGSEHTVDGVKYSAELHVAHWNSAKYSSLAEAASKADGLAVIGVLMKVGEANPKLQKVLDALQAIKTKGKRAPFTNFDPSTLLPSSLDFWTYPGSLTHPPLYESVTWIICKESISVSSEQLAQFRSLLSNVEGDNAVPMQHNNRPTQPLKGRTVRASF

| SMILES | Ki [1] [nM] | Ki [2] [nM] | Ki [3] [nM] | Ki [4] [nM] |
| --- | --- | --- | --- | --- |
| O=C(O)c1ccccc1S(=O)(=O)NCc1ccccc1 | 342 |  | > 10000 |  |
| O=C(O)c1ccccc1S(=O)(=O)NCc1ccc(Br)cc1 | 277 |  | > 10000 |  |
| CCCCCNS(=O)(=O)c1ccccc1C(=O)O | 392 | > 10000 | > 10000 |  |
| CC#CCN1C(=O)c2ccccc2S1(=O)=O | 563 | > 10000 | > 10000 |  |
| CCCNS(=O)(=O)c1ccccc1C(=O)O | 481 | > 10000 | > 10000 |  |
| CCN1C(=O)c2ccccc2S1(=O)=O | 236 | > 10000 | > 10000 |  |
| CC#CCNS(=O)(=O)c1ccccc1C(=O)O | 250 | > 10000 | > 10000 |  |
| CCCCNS(=O)(=O)c1ccccc1C(=O)O | 436 | > 10000 | > 10000 |  |

The next molecules have a lower Ki [1] than those just listed; values first:

| Ki [1] [nM] | Ki [2] [nM] | Ki [3] [nM] | Ki [4] [nM] | SMILES |
| --- | --- | --- | --- | --- |
| 209 | > 10000 | > 10000 |  | CCCN1C(=O)c2ccccc2S1(=O)=O |
| 164 | > 10000 | > 10000 |  | CCCCN1C(=O)c2ccccc2S1(=O)=O |
| 102 | > 10000 | > 10000 | 34 | CCCCCN1C(=O)c2ccccc2S1(=O)=O |
| 89.2 | > 10000 | > 10000 |  | O=C1c2ccccc2S(=O)(=O)N1Cc1ccccc1 |
| 76.1 | > 10000 | > 10000 | 10.4 | O=C1c2ccccc2S(=O)(=O)N1CCc1ccccc1 |

— ChEMBL document CHEMBL4020728 (Bioorg Med Chem, 2017)
